Consider 1 molecule from US10046082B2, “Collagen sponge containing a drug for promoting fracture healing and method for preparing the same” (WUHAN VSD MEDICAL SCIENCE & TECHNOLOGY CO., LTD., priority 2015, dated 2018).

Marks after values point to notes of the source that are not given here.

One assay relates to fracture sites. As to the kind of experiment: Callus cross-sectional area in rabbit fracture healing experiment. To be noted: sponge placed at fracture site (IB group: 0.1 mg/kg IB after surgery), n=5. In kind it is in vivo, New Zealand rabbits. The protocol:
(§1) 1.1. Experimental Animal: New Zealand rabbits, each being male and having a weight of about 2 to 3 kg (12 to 16 weeks old) were used
(§2) 1.2. Experimental Grouping and Materials: experiments were divided into a control group (Control), a collagen sponge (CS) group, an ibandronate sodium (0.1 mg/kg IB) group, a group with a small dosage of ibandronate sodium+collagen sponge (SIB+CS, 0.125 mg IB), a group with a median dosage of ibandronte sodium+collagen sponge (MIB+CS, 0.25 mg IB), and a group with a large dosage of ibandronate sodium+collagen sponge (LIB+CS, 0.5 mg IB), in total 6 groups. 10 experimental animals are used for each group, […].
(§3) Preparation of materials for the SIB+CS group: 125 μl of 1 mg/ml IB was added into 600 ml of the enzymolysis solution of collagen to prepare a 50*25*5 mm collagen sponge;
(§4) Preparation of materials for the MIB+CS group: 250 μl of 1 mg/ml IB was added into 600 ml of the enzymolysis solution of collagen to prepare a 50*25*5 mm collagen sponge;
(§5) Preparation of materials for the LIB+CS group: 500 μl of 1 mg/ml IB was added into 600 ml of the enzymolysis solution of collagen to prepare a 50*25*5 mm collagen sponge.
Male New Zealand rabbits were anesthetized by marginal ear vein injection with sodium pentobarbital (3%, […]). After the anesthesia, the skin in the surgical area was depilated with 8% sodium sulfide and disinfected. […]

Assay [1] relates to tibia fracture sites of the rabbits. Nature of the assay: Three-point bending force test at fracture sites of the rabbits. It counts as in vivo, New Zealand rabbits. The settings on record: n=5. The protocol:
as §1, §2, §3, §4, §5
Male New Zealand rabbits were anesthetized by marginal ear vein injection with sodium pentobarbital (3%, […]). After the anesthesia, the skin in the surgical area was depilated with 8% sodium sulfide and disinfected. The animals were fixed on their backs, and disinfected and covered with a sterile towel or sheet. A longitudinal incision was cut at the distal femur of the right leg near the patella. The patella was retracted to expose the inner and outer condyles of the distal femur. A 2 mm Kirschner wire was inserted retrogradely between the inner and outer condyles through an electric drill. The Kirschner wire went through the medullary cavity and came out of the skin from the proximal femur. The distal end of the Kirschner wire was cut off and ensured to be embedded under the surface of the knee joint. The knee was reset. An incision was made on the outer side of the distal femur, and the femur was exposed along the intermuscular space. Sufficient protection was provided for the surrounding soft tissues such as muscles and blood vessels. The femur was cut by a dental drill. The Control group and the IB group were not subjected to any treatment. The prepared materials for the CS group, the SIB+CS group, the MIB+CS group and the LIB+CS group were placed at the fracture sites of the animals, respectively. The incisions and the skin were washed with sterile normal saline and sutured with 5-0 nylon thread. Normal saline (0.1 ml/kg) and ibandronate sodium (0.1 ml/kg) were administered to the Control group and the IB group after surgery, respectively. All the animals were injected intramuscularly with buprenorphine (0.05 mg/kg) twice and with ciprofloxacin (10 mg/kg) once a day for 3 days after the surgery. All the animals were fed normally (lightless, quiet, at a temperature from 20 to 26° C., and at a humidity below 80%). X-ray photographs were taken on the day of surgery to check the condition of fracture apposition and alignment after the surgery. Further, half of the New Zealand rabbits were sacrificed at the 2nd week and the 4th week for detection, respectively.
3.2. Three-point bending force test at tibia fracture sites of the rabbits at the second week and the fourth week

Take `CCCCCN(C)CCC(O)(P(=O)(O)O)P(=O)(O)O` [IB, ibandronate sodium]: the “callus cross-sectional area (CSA)” value with fracture sites (2nd week after surgery) was 89.9 ± 3.6^a,h,i,j,k mm^2. The “callus cross-sectional area (CSA)” value with fracture sites (4th week after surgery) is given as 120.5 ± 7.8^a,h,i,j,k mm^2. Moreover, in assay [1] (2nd week), the “Compressive Strength” value is 4.7 ± 1.8 Nmm, the “Elastic Modulus” value worked out at 7.3 ± 2.2 MPa and the “Limit Load” value was determined as 6.8 ± 1.7 N. Moreover, in assay [1] (4th week), the “Compressive Strength” value is given as 64.6 ± 7.3^j Nmm, the “Elastic Modulus” value worked out at 88.2 ± 19.5 MPa and the “Limit Load” value is recorded as 95.9 ± 7.04^i,j N.
